Measurements: patent publication US12077506B2, “Indane derivatives as hypoxia inducible factor-2(α) inhibitors” (priority 2019, dated 2024)
pEC50: −log10 of the molar value. Read-outs that look alike come from different tables or passages of the source.

Biological target: HIF-2α (Homo sapiens (Human), UniProt Q99814)
Test: VEGF ELISA Assay
Format: cell-based
Description: The ability of the disclosed compounds to inhibit HIF-2α was measured by determining VEGF expression in 786-O cells. About 7500 786-O cells were seeded into each well of a 96-well, white, clear bottom plate (07-200-566, Fisher Scientific) with 200 ul growth medium. Four hours later, compounds were dispensed into wells by Tecan D300e digital dispenser with starting concentration of 10 uM and ½ log of dilution down to 1 nM as final concentration. Each concentration of treatment was performed in duplicate. About 20 hours later, medium was removed and fresh medium was added, followed by compounds treatment as described above. After 24 hours, cell culture medium was collected to determine VEGF concentration using an ELISA kit (R&D systems, cat #DVE00) following the manufacturer's instruction.
The EC50 was calculated by GraphPad Prism using the dose-response-inhibition (four parameter) equation. The plate with cells was then subjected to CellTiter-Glo luminescence cell viability assay (Promega) to determine the effect of these compounds on cell numbers after the above treatment.

[1] = VEGF expression in 786-O cells, ELISA of culture medium, read-out: EC50

HIF-2α, sequence (Q99814 whole entry): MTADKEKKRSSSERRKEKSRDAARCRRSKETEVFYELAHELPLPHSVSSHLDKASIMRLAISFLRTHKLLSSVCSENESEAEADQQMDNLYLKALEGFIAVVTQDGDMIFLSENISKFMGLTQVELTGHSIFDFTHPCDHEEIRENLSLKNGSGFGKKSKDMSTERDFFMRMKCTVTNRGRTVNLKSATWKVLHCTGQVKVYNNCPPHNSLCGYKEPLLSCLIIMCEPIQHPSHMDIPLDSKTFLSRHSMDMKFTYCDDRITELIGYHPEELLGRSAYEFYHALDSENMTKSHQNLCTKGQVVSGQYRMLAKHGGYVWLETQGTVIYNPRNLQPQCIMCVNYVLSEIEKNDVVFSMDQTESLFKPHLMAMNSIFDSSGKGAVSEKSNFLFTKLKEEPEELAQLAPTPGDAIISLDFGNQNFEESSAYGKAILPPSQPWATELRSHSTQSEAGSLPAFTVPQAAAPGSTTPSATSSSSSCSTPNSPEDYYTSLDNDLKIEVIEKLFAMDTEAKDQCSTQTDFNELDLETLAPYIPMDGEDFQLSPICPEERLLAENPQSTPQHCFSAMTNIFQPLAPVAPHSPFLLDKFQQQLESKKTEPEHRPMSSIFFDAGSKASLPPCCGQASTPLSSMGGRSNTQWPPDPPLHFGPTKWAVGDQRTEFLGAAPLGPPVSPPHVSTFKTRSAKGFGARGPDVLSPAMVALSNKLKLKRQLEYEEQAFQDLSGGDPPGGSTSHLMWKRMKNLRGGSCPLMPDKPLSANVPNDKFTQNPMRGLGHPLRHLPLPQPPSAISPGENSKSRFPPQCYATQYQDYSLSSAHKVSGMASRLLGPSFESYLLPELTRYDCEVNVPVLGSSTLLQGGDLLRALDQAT

Compound: N#Cc1cc(F)cc(Oc2ccc3c(c2C(F)F)C(O)C(F)(F)C3F)c1 (stereo not shown) [I-19, 3-((4-(difluoromethyl)-1,2,2-trifluoro-3-hydroxy-2,3-dihydro-1H-inden-5-yl)oxy)-5-fluorobenzonitrile]
- pEC50 [1]: 6.82

Compound: CCc1c(Oc2cc(F)cc(C#N)c2)ccc2c1C(C)(O)C(F)(F)C2(F)F (stereo not shown) [I-18, 3-((4-ethyl-1,1,2,2-tetrafluoro-3-hydroxy-3-methyl-2,3-dihydro-1H-inden-5-yl)oxy)-5-fluorobenzonitrile]
- pEC50 [1]: 5.60

Compound: C=Cc1c(Oc2cc(F)cc(C#N)c2)ccc2c1C(C)(O)C(F)(F)C2(F)F (stereo not shown) [I-17, 3-fluoro-5-((1,1,2,2-tetrafluoro-3-hydroxy-3-methyl-4-vinyl-2,3-dihydro-1H-inden-5-yl)oxy)benzonitrile]
- pEC50 [1]: 5.24

Compound: OC1c2c(ccc(OC3CC(F)(F)C3)c2C(F)F)C(F)(F)C1(F)F (stereo not shown) [I-8, 6-(3,3-difluorocyclobutoxy)-7-(difluoromethyl)-2,2,3,3-tetrafluoro-2,3-dihydro-1H-inden-1-ol]
- pEC50 [1]: 6.98

Compound: CC1(O)c2c(ccc(Oc3cc(F)cc(C#N)c3)c2C#N)C(F)(F)C1(F)F (stereo not shown) [I-15, 5-(3-cyano-5-fluorophenoxy)-1,1,2,2-tetrafluoro-3-hydroxy-3-methyl-2,3-dihydro-1H-indene-4-carbonitrile]
- pEC50 [1]: 6.54

Compound: N#Cc1cc(F)cc(Oc2ccc3c(c2C(F)F)C(N)C(F)(F)C3(F)F)c1 (stereo not shown) [I-3, 3-((3-amino-4-(difluoromethyl)-1,1,2,2-tetrafluoro-2,3-dihydro-1H-inden-5-yl)oxy)-5-fluorobenzonitrile]
- pEC50 [1]: 6.78

Compound: Cc1cc(C#N)cc(Oc2ccc3c(c2C(F)F)C(O)C(F)(F)C3(F)F)c1 (stereo not shown) [I-5, 3-((4-(difluoromethyl)-1,1,2,2-tetrafluoro-3-hydroxy-2,3-dihydro-1H-inden-5-yl)oxy)-5-methylbenzonitrile]
- pEC50 [1]: 7.17

Compound: N#Cc1cncc(Oc2ccc3c(c2C(F)F)C(O)C(F)(F)C3(F)F)c1 (stereo not shown) [I-9, 5-((4-(difluoromethyl)-1,1,2,2-tetrafluoro-3-hydroxy-2,3-dihydro-1H-inden-5-yl)oxy)nicotinonitrile]
- pEC50 [1]: 6.83

Compound: N#Cc1cc(F)cc(Oc2ccc3c(c2C(F)F)C(O)C(F)(F)C3(F)F)c1 (stereo not shown) [I-1, 3-((4-(difluoromethyl)-1,1,2,2-tetrafluoro-3-hydroxy-2,3-dihydro-1H-inden-5-yl)oxy)-5-fluorobenzonitrile]
- pEC50 [1]: 8.22

Compound: OC1c2c(ccc(Oc3cncc(F)c3)c2C(F)F)C(F)(F)C1(F)F (stereo not shown) [I-10, 7-(difluoromethyl)-2,2,3,3-tetrafluoro-6-((5-fluoropyridin-3-yl)oxy)-2,3-dihydro-1H-inden-1-ol]
- pEC50 [1]: 7.27

Compound: CC1(O)c2c(ccc(Oc3cc(F)cc(C#N)c3)c2C(F)F)C(F)(F)C1(F)F (stereo not shown) [I-2, 3-((4-(difluoromethyl)-1,1,2,2-tetrafluoro-3-hydroxy-3-methyl-2,3-dihydro-1H-inden-5-yl)oxy)-5-fluorobenzonitrile]
- pEC50 [1]: 6.11

Compound: [2H][C@@]1(O)c2c(ccc(Oc3cc(F)cc(C#N)c3)c2C#N)C(F)(F)C1(F)F [I-13b, (R)-5-(3-cyano-5-fluorophenoxy)-1,1,2,2-tetrafluoro-3-hydroxy-2,3-dihydro-1H-indene-4-carbonitrile-3-d]
- pEC50: 7.92

Compound: [2H]C1(O)c2c(ccc(Oc3cncc(F)c3)c2C#N)C(F)(F)C1(F)F (stereo not shown) [I-14, 1,1,2,2-tetrafluoro-5-((5-fluoropyridin-3-yl)oxy)-3-hydroxy-2,3-dihydro-1H-indene-4-carbonitrile-3-d]
- pEC50: 6.74

Compound: 7-(difluoromethyl)-6-(3,5-difluorophenoxy)-2,2,3,3-tetrafluoro-2,3-dihydro-1H-inden-1-ol [I-4]
- pEC50 [1]: 8.40

Compound: N#Cc1cc(Cl)cc(Oc2ccc3c(c2C(F)F)C(O)C(F)(F)C3(F)F)c1 (stereo not shown) [I-6, 3-chloro-5-((4-(difluoromethyl)-1,1,2,2-tetrafluoro-3-hydroxy-2,3-dihydro-1H-inden-5-yl)oxy)benzonitrile]
- pEC50 [1]: 7.57

Compound: N#Cc1cc(F)cc(Oc2ccc3c(c2C(F)F)C(O)C(F)(Cl)C3(F)F)c1 (stereo not shown) [I-20, 3-((2-chloro-4-(difluoromethyl)-1,1,2-trifluoro-3-hydroxy-2,3-dihydro-1H-inden-5-yl)oxy)-5-fluorobenzonitrile]
- pEC50 [1]: 7.70

Compound: CC1(O)c2c(ccc(Oc3cc(F)cc(C#N)c3)c2Br)C(F)(F)C1(F)F (stereo not shown) [I-16, 3-((4-bromo-1,1,2,2-tetrafluoro-3-hydroxy-3-methyl-2,3-dihydro-1H-inden-5-yl)oxy)-5-fluorobenzonitrile]
- pEC50 [1]: 5.68

Compound: [2H][C@]1(O)c2c(ccc(Oc3cc(F)cc(C#N)c3)c2C#N)C(F)(F)C1(F)F [I-13a, (S)-5-(3-cyano-5-fluorophenoxy)-1,1,2,2-tetrafluoro-3-hydroxy-2,3-dihydro-1H-indene-4-carbonitrile-3-d]
- pEC50: 6.33

Compound: OC1c2c(ccc(Oc3cc(F)cc(Cl)c3)c2C(F)F)C(F)(F)C1(F)F (stereo not shown) [I-7, 6-(3-chloro-5-fluorophenoxy)-7-(difluoromethyl)-2,2,3,3-tetrafluoro-2,3-dihydro-1H-inden-1-ol]
- pEC50 [1]: 8.10
